Columns and labels:
[1] = Maximal bubble pressure
[2] = xn = mol fraction of the nth substance listed; conditions: Maximal bubble pressure

CCCCCCCCCC [decane]
[1]
Conditions	surface tension liquid-gas [mN/m]
303.15 K	22.9
308.15 K	22.5
318.15 K	21.66

CCCCCCCCCC [decane] + CCO
[2]
Conditions	surface tension liquid-gas [mN/m]
303.15 K, x2 = 0.034	22.85
303.15 K, x2 = 0.101	22.6
303.15 K, x2 = 0.189	22.3
303.15 K, x2 = 0.29	22.1
303.15 K, x2 = 0.395	21.95
303.15 K, x2 = 0.492	21.85
303.15 K, x2 = 0.59	21.75
303.15 K, x2 = 0.696	21.65
303.15 K, x2 = 0.801	21.55
303.15 K, x2 = 0.907	21.45
303.15 K, x2 = 0.959	21.44
303.15 K, x2 = 0.982	21.43
308.15 K, x2 = 0.076	22.25
308.15 K, x2 = 0.173	22
308.15 K, x2 = 0.286	21.8
308.15 K, x2 = 0.373	21.68
308.15 K, x2 = 0.486	21.54
308.15 K, x2 = 0.593	21.46
308.15 K, x2 = 0.695	21.4
308.15 K, x2 = 0.8	21.29
308.15 K, x2 = 0.902	21.2
308.15 K, x2 = 0.954	21.17
318.15 K, x2 = 0.067	21.51
318.15 K, x2 = 0.16	21.25
318.15 K, x2 = 0.272	21
318.15 K, x2 = 0.366	20.83
318.15 K, x2 = 0.472	20.67
318.15 K, x2 = 0.585	20.54
318.15 K, x2 = 0.698	20.48
318.15 K, x2 = 0.803	20.37
318.15 K, x2 = 0.907	20.3
318.15 K, x2 = 0.958	20.36

CCCCCCCCCCCC [dodecane]
[1]
Conditions	surface tension liquid-gas [mN/m]
298.15 K	24.9
303.15 K	24.73

CCCCCCCCCCCC [dodecane] + CCO
surface tension liquid-gas [mN/m], [2]
Conditions	298.15 K	303.15 K
x2 = 0.055	24.87	24.6
x2 = 0.09	–	24.5
x2 = 0.097	24.72	–
x2 = 0.174	–	24.05
x2 = 0.184	24.33	–
x2 = 0.247	–	23.7
x2 = 0.264	23.95	–
x2 = 0.332	–	23.35
x2 = 0.366	23.47	–
x2 = 0.443	–	22.92
x2 = 0.472	23.1	–
x2 = 0.571	–	22.65
x2 = 0.589	22.97	–
x2 = 0.684	–	22.52
x2 = 0.692	22.92	–
x2 = 0.795	–	22.39
x2 = 0.799	22.78	–
x2 = 0.903	–	22.16
x2 = 0.905	22.57	–
x2 = 0.951	22.38	21.98

CCO [ethanol]
[1]
Conditions	surface tension liquid-gas [mN/m]
298.15 K	22.1
303.15 K	21.7
308.15 K	21.3
313.15 K	20.71
318.15 K	20.4

CCCCCCCC [octane]
[1]
Conditions	surface tension liquid-gas [mN/m]
298.15 K	21.1
308.15 K	20.2
318.15 K	19.2

CCCCCCCC [octane] + CCO
[2]
Conditions	surface tension liquid-gas [mN/m]
298.15 K, x2 = 0.099	20.91
298.15 K, x2 = 0.208	20.9
298.15 K, x2 = 0.294	20.79
298.15 K, x2 = 0.391	20.8
298.15 K, x2 = 0.512	20.75
298.15 K, x2 = 0.604	20.81
298.15 K, x2 = 0.707	20.9
298.15 K, x2 = 0.809	21.03
298.15 K, x2 = 0.871	21.19
298.15 K, x2 = 0.908	21.44
298.15 K, x2 = 0.955	21.69
308.15 K, x2 = 0.105	19.95
308.15 K, x2 = 0.162	19.83
308.15 K, x2 = 0.209	19.81
308.15 K, x2 = 0.31	19.73
308.15 K, x2 = 0.403	19.71
308.15 K, x2 = 0.5	19.72
308.15 K, x2 = 0.607	19.71
308.15 K, x2 = 0.707	19.86
308.15 K, x2 = 0.807	20.05
308.15 K, x2 = 0.904	20.39
308.15 K, x2 = 0.955	20.77
318.15 K, x2 = 0.103	18.96
318.15 K, x2 = 0.205	18.71
318.15 K, x2 = 0.345	18.64
318.15 K, x2 = 0.448	18.6
318.15 K, x2 = 0.598	18.63
318.15 K, x2 = 0.703	18.69
318.15 K, x2 = 0.809	18.83
318.15 K, x2 = 0.91	19.18
318.15 K, x2 = 0.958	19.85

CCCCCCCCCCCCCC [tetradecane]
Conditions	surface tension liquid-gas [mN/m]
[1], 313.15 K	24.8

CCCCCCCCCCCCCC [tetradecane] + CCO
[2], 313.15 K
Conditions	surface tension liquid-gas [mN/m]
x2 = 0.054	24.67
x2 = 0.072	24.67
x2 = 0.143	24.53
x2 = 0.191	24.25
x2 = 0.3	23.3
x2 = 0.412	22.52
x2 = 0.522	21.98
x2 = 0.62	21.76
x2 = 0.702	21.8
x2 = 0.8	21.66
x2 = 0.9	21.4
x2 = 0.945	21.17
x2 = 0.967	21.02
x2 = 0.988	20.82

Source: the NIST ThermoML archive (doi:10.1016/j.jct.2011.04.005)
